The source of these data is ChEMBL document CHEMBL4665643 (Bioorg Med Chem Lett, 2019).

Test [1] addresses Macrophage colony-stimulating factor 1 receptor (Homo sapiens) (UniProt P07333). The experiment in a line: Inhibition of recombinant human His-tagged CSF1R (538 to 910 residues) expressed in baculovirus expression system using Tyr 01 as substrate at 0.1 uM incubated for 60 mins by Z'-Lyte assay relative to control.
Test [2] deals with Mitogen-activated protein kinase 3 (Homo sapiens) (UniProt P27361). The experiment in a line: Inhibition of recombinant human GST-tagged full length ERK1 expressed in Escherichia coli expression system using Ser/Thr 03 as substrate at 0.1 uM incubated for 60 mins by Z'-Lyte assay relative to control.
The target in test [3] is T1, Beta-adrenergic receptor kinase 1 (Homo sapiens) (UniProt P25098).
T1 sequence (whole entry): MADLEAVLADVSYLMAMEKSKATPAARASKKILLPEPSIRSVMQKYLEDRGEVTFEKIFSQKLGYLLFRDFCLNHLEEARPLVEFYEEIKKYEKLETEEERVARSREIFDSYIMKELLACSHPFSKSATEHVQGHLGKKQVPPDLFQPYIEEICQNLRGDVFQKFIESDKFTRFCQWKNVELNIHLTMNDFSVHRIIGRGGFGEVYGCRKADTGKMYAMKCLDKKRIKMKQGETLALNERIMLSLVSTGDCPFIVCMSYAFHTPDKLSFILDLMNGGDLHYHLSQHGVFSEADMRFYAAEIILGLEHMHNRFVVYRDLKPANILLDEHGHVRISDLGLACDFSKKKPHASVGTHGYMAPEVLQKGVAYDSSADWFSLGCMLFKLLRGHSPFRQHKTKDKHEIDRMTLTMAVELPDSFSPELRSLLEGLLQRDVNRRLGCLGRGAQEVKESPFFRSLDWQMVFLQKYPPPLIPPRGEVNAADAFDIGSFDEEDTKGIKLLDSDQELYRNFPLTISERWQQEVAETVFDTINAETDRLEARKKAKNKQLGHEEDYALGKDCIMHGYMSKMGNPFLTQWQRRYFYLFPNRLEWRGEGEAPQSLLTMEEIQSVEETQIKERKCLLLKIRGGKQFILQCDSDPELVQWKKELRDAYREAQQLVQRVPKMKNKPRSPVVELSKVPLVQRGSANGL
The experiment in a line: Inhibition of recombinant human His-tagged full length GRK2 expressed in baculovirus expression system using Ser/Thr 16 as substrate at 0.1 uM incubated for 60 mins by Z'-Lyte assay relative to control.

For test [4], the target named is T2, cGMP-dependent protein kinase 2 (Homo sapiens) (UniProt Q13237).
T2 sequence (whole entry): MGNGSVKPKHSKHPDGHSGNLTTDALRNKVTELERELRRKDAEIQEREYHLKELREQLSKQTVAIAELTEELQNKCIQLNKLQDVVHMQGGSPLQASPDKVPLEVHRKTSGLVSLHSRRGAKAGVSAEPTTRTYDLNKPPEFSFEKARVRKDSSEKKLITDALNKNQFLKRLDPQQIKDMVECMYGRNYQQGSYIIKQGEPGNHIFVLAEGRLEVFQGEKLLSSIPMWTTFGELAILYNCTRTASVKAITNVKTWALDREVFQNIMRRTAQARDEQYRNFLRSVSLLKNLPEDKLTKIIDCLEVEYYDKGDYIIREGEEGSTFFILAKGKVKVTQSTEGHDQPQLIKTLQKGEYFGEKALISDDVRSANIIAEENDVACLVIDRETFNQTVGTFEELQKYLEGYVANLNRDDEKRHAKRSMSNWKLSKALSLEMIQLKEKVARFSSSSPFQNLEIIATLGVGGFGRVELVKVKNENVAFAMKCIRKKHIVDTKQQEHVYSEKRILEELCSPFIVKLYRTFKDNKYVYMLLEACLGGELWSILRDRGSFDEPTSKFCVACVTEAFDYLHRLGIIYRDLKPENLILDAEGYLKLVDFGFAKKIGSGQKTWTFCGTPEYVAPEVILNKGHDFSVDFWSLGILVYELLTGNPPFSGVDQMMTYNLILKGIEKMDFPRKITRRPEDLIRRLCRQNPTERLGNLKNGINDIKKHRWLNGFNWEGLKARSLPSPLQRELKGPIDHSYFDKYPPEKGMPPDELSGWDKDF
The experiment in a line: Inhibition of recombinant human GST-tagged full length PKG2 expressed in baculovirus expression system using Ser/Thr 01 as substrate at 0.1 uM incubated for 60 mins by Z'-Lyte assay relative to control.

Test [5] addresses Mitogen-activated protein kinase 1 (Homo sapiens) (UniProt P28482). The experiment in a line: Inhibition of recombinant human GST-tagged full length ERK2 expressed in baculovirus expression system using Ser/Thr 03 as substrate at 0.1 uM incubated for 60 mins by Z'-Lyte assay relative to control.
Test [6] deals with Epidermal growth factor receptor (Homo sapiens) (UniProt P00533). The experiment in a line: Inhibition of recombinant human GST-tagged EGFR (668 to 1210 residues) expressed in baculovirus expression system using Tyr 4 as substrate at 0.1 uM incubated for 60 mins by Z'-Lyte assay relative to control.

The inhibition is the change of the read-out against control, counted positive when it falls.

Sequence of Mitogen-activated protein kinase 3 (Homo sapiens) (P27361 whole entry): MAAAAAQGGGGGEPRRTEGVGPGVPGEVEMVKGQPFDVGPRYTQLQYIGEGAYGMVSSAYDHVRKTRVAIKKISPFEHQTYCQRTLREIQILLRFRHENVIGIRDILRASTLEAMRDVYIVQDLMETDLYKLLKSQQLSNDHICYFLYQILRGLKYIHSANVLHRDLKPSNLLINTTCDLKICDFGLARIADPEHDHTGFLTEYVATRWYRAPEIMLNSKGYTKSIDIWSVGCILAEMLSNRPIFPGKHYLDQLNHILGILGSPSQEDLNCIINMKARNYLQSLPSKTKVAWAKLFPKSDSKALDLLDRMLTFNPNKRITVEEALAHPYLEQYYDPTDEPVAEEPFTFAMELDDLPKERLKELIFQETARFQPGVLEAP
Sequence of Epidermal growth factor receptor (Homo sapiens) (P00533 whole entry, the tested form may be a part): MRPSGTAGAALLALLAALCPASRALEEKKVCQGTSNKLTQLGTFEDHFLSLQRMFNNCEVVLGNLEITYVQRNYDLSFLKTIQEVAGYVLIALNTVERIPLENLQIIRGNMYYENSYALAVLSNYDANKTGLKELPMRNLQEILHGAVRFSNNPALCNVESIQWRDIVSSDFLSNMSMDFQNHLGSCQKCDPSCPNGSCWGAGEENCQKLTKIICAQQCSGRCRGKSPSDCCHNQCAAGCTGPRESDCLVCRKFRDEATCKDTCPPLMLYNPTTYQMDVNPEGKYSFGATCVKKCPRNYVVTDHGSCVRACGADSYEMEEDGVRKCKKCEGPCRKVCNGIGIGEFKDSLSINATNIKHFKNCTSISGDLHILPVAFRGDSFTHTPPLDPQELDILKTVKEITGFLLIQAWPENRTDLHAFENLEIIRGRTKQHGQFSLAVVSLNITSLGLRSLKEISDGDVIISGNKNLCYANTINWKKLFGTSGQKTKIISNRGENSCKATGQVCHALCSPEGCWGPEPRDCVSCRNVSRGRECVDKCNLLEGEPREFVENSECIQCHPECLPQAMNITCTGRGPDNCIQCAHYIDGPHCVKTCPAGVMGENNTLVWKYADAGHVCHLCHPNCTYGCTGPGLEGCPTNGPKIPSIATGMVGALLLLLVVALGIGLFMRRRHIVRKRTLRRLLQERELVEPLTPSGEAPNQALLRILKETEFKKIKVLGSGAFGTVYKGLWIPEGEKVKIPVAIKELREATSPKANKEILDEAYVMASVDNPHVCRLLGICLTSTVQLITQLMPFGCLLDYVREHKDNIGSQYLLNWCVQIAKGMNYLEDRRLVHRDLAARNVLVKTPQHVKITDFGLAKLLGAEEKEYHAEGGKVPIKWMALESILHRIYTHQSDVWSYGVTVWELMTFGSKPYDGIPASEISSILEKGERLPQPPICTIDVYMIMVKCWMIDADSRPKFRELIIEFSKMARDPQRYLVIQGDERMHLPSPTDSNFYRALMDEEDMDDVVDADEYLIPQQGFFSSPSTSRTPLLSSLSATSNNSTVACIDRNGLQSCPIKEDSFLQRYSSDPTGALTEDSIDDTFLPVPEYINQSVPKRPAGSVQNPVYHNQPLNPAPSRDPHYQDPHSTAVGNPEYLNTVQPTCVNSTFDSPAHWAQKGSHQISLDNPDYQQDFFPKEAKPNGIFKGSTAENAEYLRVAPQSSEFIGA
Sequence of Macrophage colony-stimulating factor 1 receptor (Homo sapiens) (P07333 whole entry, the tested form may be a part): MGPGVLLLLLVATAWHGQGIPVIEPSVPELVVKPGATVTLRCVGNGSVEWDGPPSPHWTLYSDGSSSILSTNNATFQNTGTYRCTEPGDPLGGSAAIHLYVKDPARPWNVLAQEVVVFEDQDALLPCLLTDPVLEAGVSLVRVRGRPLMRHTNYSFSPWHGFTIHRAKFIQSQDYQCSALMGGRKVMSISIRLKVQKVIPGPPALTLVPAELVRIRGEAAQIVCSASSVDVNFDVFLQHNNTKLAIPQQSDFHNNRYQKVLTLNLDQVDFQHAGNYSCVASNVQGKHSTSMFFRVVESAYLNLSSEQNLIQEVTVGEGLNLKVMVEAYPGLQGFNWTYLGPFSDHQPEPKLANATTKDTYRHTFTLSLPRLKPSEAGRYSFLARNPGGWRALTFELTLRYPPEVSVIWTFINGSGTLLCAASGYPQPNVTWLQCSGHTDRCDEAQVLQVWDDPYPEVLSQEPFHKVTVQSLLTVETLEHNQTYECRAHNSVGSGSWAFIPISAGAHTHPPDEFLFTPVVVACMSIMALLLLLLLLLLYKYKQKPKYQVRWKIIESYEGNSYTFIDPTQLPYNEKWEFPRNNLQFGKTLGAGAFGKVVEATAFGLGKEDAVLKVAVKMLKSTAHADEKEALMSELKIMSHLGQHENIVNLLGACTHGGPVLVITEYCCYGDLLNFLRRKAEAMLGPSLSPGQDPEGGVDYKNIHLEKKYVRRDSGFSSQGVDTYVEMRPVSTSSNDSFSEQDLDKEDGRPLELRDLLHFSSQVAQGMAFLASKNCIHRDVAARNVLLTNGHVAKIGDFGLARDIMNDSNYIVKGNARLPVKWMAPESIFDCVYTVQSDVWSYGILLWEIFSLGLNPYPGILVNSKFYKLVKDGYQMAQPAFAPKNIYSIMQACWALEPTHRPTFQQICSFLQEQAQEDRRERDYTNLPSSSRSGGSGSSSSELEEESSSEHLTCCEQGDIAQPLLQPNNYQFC
Sequence of Mitogen-activated protein kinase 1 (Homo sapiens) (P28482 whole entry, the tested form may be a part): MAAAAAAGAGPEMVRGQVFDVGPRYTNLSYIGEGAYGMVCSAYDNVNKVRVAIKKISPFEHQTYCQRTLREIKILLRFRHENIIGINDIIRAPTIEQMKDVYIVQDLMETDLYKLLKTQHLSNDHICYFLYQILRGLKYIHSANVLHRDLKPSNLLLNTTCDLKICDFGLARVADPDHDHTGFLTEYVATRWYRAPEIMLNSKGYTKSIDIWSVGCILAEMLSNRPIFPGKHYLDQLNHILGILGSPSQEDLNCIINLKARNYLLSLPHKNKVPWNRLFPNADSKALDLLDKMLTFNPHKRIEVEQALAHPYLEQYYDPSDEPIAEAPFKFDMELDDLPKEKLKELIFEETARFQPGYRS

Consider `O=C(Nc1c[nH]nc1-c1cc(Cl)ccc1OC(F)F)c1cnn2cccnc12`, for which the inhibition was found to be 6% in test [1]; 5% in test [2]; 3% in test [3]; 2% in test [4]; 1% in test [5]; 0% in test [6].
For `O=C(Nc1c[nH]nc1-c1cc2ccccc2cc1OC(F)F)c1cnn2cccnc12`, the inhibition in test [1] was -3%; in test [2], 0%; in test [3], 0%; in test [4] it was 6%; in test [5], -4%; in test [6], 6%.
On to `Cn1cc(NC(=O)c2cnn3cccnc23)c(-c2cc(Cl)ccc2OC(F)F)n1`, for which the inhibition in test [1] came out at 29%; in test [2] it was 4%; in test [3], 8%; in test [4], 6%; in test [5], 4%; in test [6] it was 2%.
